The values below come from US20250025443A1, “COMPOUNDS AND METHODS FOR TREATING CORONA VIRUSES” (CLEAR CREEK BIO, INC., priority 2021, published 2025).

One experiment addresses SARS-CoV-2 Papain-Like Protease (PLpro) (Severe acute respiratory syndrome coronavirus 2 (2019-nCoV) (SARS-CoV-2), UniProt P0DTD1). The experiment is described as follows: biochemical. The note with it: PLpro enzymatic fluorescence assay; class symbols; read-out: PLpro IC50.
For the compound `Cc1ncc(-c2cc(C3(NC(=O)c4cc(OC[C@@H]5CCN5C)ccc4C)CC3)c3cccnc3c2)o1` [Compound 716, (S)-2-Methyl-5-((1-methylazetidin-2-yl)methoxy)-N-(1-(7-(2-methyloxazol-5-yl)quinolin-5-yl)cyclopropyl)benzamide], the half-maximal inhibitory concentration (IC50) is under 100 nM.

Turning to `C=Cc1cc(C2(NC(=O)c3cc(OC[C@@H]4CCCN4C)ccc3C)CC2)c2cccnc2c1` [Compound 717, (S)-2-Methyl-5-((1-methylpyrrolidin-2-yl)methoxy)-N-(1-(7-vinylquinolin-5-yl)cyclopropyl)benzamide], the IC50 is under 100 nM. Same read-out and setting: to `Cc1ccc(OC[C@@H]2CCN2C)cc1C(=O)NC1(c2cc(-c3nc4ccccc4o3)cc3ncccc23)CC1` [Compound 718, (S)—N-(1-(7-(Benzo[d]oxazol-2-yl)quinolin-5-yl)cyclopropyl)-2-methyl-5-((1-methylazetidin-2-yl)methoxy)benzamide] belongs under 100 nM; to `C=C(C)c1cc(C2(NC(=O)c3cc(OC[C@@H]4CCCN4C)ccc3C)CC2)c2cccnc2c1` [Compound 719, (S)-2-Methyl-5-((1-methylpyrrolidin-2-yl)methoxy)-N-(1-(7-(prop-1-en-2-yl)quinolin-5-yl)cyclopropyl)benzamide], under 100 nM. Same read-out and setting: with `CC#Cc1cc(C2(NC(=O)c3cc(OC[C@@H]4CCN4C)ccc3C)CC2)c2cccnc2c1` [Compound 721, (S)-2-Methyl-5-((1-methylazetidin-2-yl)methoxy)-N-(1-(7-(prop-1-yn-1-yl)quinolin-5-yl)cyclopropyl)benzamide] the figure was under 100 nM; with `Cc1ccc(OC[C@@H]2CCN2)cc1C(=O)NC1(c2cc(N3CCC3)cc3ncccc23)CC1` [Compound 722, (S)—N-(1-(7-(Azetidin-1-yl)quinolin-5-yl)cyclopropyl)-5-(azetidin-2-ylmethoxy)-2-methylbenzamide], under 100 nM. Turning to `Cc1ccc(OC[C@@H]2CCN2C)cc1C(=O)NC1(c2cc(N3CCC3)cc3ncccc23)CC1` [Compound 723, (S)—N-(1-(7-(Azetidin-1-yl)quinolin-5-yl)cyclopropyl)-2-methyl-5-((1-methylazetidin-2-yl)methoxy)benzamide], the concentration for half-maximal inhibition (IC50) is under 100 nM. The same measure, in the same setting: with `[2H]C([2H])([2H])N1CC[C@H]1COc1ccc(C)c(C(=O)NC2(c3cc(OC)cc4ncccc34)CC2)c1` [Compound 732, (S)-N-(1-(7-Methoxyquinolin-5-yl)cyclopropyl)-2-methyl-5-((1-(methyl-d3)azetidin-2-yl)methoxy)benzamide] the figure was under 100 nM; with `Cc1ccc(OC[C@@H]2CCN2)cc1C(=O)NC1(c2cc(-c3ncn4ccccc34)cc3ncccc23)CC1` [Compound 733, (S)-5-(Azetidin-2-ylmethoxy)-N-(1-(7-(imidazo[1,5-a]pyridin-1-yl)quinolin-5-yl)cyclopropyl)-2-methylbenzamide], under 100 nM.

In the case of `C=C(C)c1cc(C2(NC(=O)c3cc(OC[C@H](C)N)ccc3C)CC2)c2cccnc2c1` [Compound 734, (S)-5-(2-Aminopropoxy)-2-methyl-N-(1-(7-(prop-1-en-2-yl)quinolin-5-yl)cyclopropyl)benzamide], the IC50 was under 100 nM. For `C=Cc1cc(C2(NC(=O)c3cc(OC[C@H](C)N)ccc3C)CC2)c2cccnc2c1` [Compound 735, (S)-5-(2-Aminopropoxy)-2-methyl-N-(1-(7-vinylquinolin-5-yl)cyclopropyl)benzamide], the half-inhibitory concentration (IC50) was under 100 nM. For the compound `Cc1ccc(OC[C@@H]2CCN2C)cc1C(=O)NC1(c2cc(-c3ncn4ccccc34)cc3ncccc23)CC1` [Compound 736, (S)—N-(1-(7-(Imidazo[1,5-a]pyridin-1-yl)quinolin-5-yl)cyclopropyl)-2-methyl-5-((1-methylazetidin-2-yl)methoxy)benzamide], the IC50 is under 100 nM.

Turning to `CNc1cc(C)c(C(=O)NC2(c3cc(OC)cc4ncccc34)CC2)cc1OC[C@@H]1CCN1C` [Compound 737, (S)-N-(1-(7-Methoxyquinolin-5-yl)cyclopropyl)-2-methyl-4-(methylamino)-5-((1-methylazetidin-2-yl)methoxy)benzamide], the concentration for half-maximal inhibition (IC50) was under 100 nM. On to `Cc1ccc(OC[C@@H]2CCN2C)cc1C(=O)NC1(c2cc(C#N)cc3ncccc23)CC1` [Compound 738, (S)-N-(1-(7-cyanoquinolin-5-yl)cyclopropyl)-2-methyl-5-((1-methylazetidin-2-yl)methoxy)benzamide], for which the IC50 was under 100 nM.

In the case of `Cc1ccc(OC[C@@H]2CCN2C)cc1C(=O)NC1(c2cc(OS(=O)(=O)C(F)(F)F)cc3ncccc23)CC1` [Compound 739, (S)-5-(1-(2-Methyl-5-((1-methylazetidin-2-yl)methoxy)benzamido)cyclopropyl)quinolin-7-yl trifluoromethanesulfonate], the IC50 is under 100 nM. The same measure, in the same setting: to `Cc1ccc(OC[C@@H]2CCN2C)cc1C(=O)NC1(c2cc(N3CCOCC3)cc3ncccc23)CC1` [Compound 740, (S)-2-Methyl-5-((1-methylazetidin-2-yl)methoxy)-N-(1-(7-morpholinoquinolin-5-yl)cyclopropyl)benzamide] belongs under 100 nM; to `C=Cc1cc(C2(NC(=O)c3cc(OC[C@@H]4CCN4C)c(NC)cc3C)CC2)c2cccnc2c1` [Compound 745, (S)-2-Methyl-4-(methylamino)-5-((1-methylazetidin-2-yl)methoxy)-N-(1-(7-vinylquinolin-5-yl)cyclopropyl)benzamide], under 100 nM; to `C=Cc1cc(C2(NC(=O)c3cc(OC[C@@H]4CCN4C)c(NC(C)=O)cc3C)CC2)c2cccnc2c1` [Compound 746, (S)-4-Acetamido-2-methyl-5-((1-methylazetidin-2-yl)methoxy)-N-(1-(7-vinylquinolin-5-yl)cyclopropyl)benzamide], under 100 nM. Still for that read-out and setting: with `Cc1ccc(OC[C@@H]2CCN2C)cc1C(=O)NC1(c2cc(NCc3ccccc3)cc3ncccc23)CC1` [Compound 747, (S)—N-(1-(7-(Benzylamino)quinolin-5-yl)cyclopropyl)-2-methyl-5-((1-methylazetidin-2-yl)methoxy)benzamide] the figure was under 100 nM; with `COc1cc(C2(NC(=O)c3cc(OC[C@@H]4CCN4C)c(O)cc3C)CC2)c2cccnc2c1` [Compound 750, (S)-4-Hydroxy-N-(1-(7-methoxyquinolin-5-yl)cyclopropyl)-2-methyl-5-((1-methylazetidin-2-yl)methoxy)benzamide], under 100 nM; with `Cc1ccc(OC[C@@H]2CCN2C)cc1C(=O)NC1(c2cc(-c3ccc(CN[C@H]4CC[C@@H](O)C4)s3)cc3ncccc23)CC1` [Compound 751, N-(1-(7-(5-((((1S,3R)-3-Hydroxycyclopentyl)amino)methyl)thiophen-2-yl)quinolin-5-yl)cyclopropyl)-2-methyl-5-(((S)-1-methylazetidin-2-yl)methoxy)benzamide], under 100 nM. On to `Cc1ccc(OC[C@@H]2CCN2C)cc1C(=O)NC1(c2cc(-c3ccc(CNC4CCCC4)s3)cc3ncccc23)CC1` [Compound 752, (S)—N-(1-(7-(5-((Cyclopentylamino)methyl)thiophen-2-yl)quinolin-5-yl)cyclopropyl)-2-methyl-5-((1-methylazetidin-2-yl)methoxy)benzamide], for which the concentration for half-maximal inhibition (IC50) is under 100 nM. On to `Cc1ccc(OC[C@@H]2CCN2C)cc1C(=O)NC1(c2cc(-c3ccc(CO)s3)cc3ncccc23)CC1` [Compound 753, (S)-N-(1-(7-(5-(Hydroxymethyl)thiophen-2-yl)quinolin-5-yl)cyclopropyl)-2-methyl-5-((1-methylazetidin-2-yl)methoxy)benzamide], for which the half-maximal inhibitory concentration (IC50) was under 100 nM. Regarding `C=Cc1cc(C2(NC(=O)c3cc(OC[C@@H]4CCN4C)c(O)cc3C)CC2)c2cccnc2c1` [Compound 755, (S)-4-Hydroxy-2-methyl-5-((1-methylazetidin-2-yl)methoxy)-N-(1-(7-vinylquinolin-5-yl)cyclopropyl)benzamide], the IC50 is under 100 nM. Turning to `Cc1ccc(OC[C@@H]2CCN2C)cc1C(=O)NC1(c2cc(-c3ccc(CN(C)C)s3)cc3ncccc23)CC1` [Compound 756, (S)—N-(1-(7-(5-((Dimethylamino)methyl)thiophen-2-yl)quinolin-5-yl)cyclopropyl)-2-methyl-5-((1-methylazetidin-2-yl)methoxy)benzamide], the IC50 was under 100 nM.

The same experiment, now with this note: SARS-CoV-2 PLpro enzymatic fluorescence assay; read-out: PLpro IC50.
As for `C=Cc1cc(C2(NC(=O)c3cc(OC[C@@H]4CCN4C)c(N)cc3C)CC2)c2cccnc2c1` [Compound 726, (S)-4-Amino-2-methyl-5-((1-methylazetidin-2-yl)methoxy)-N-(1-(7-vinylquinolin-5-yl)cyclopropyl)benzamide], the IC50 is under 100 nM. For `Cc1ccc(OC[C@@H]2CCN2C)cc1C(=O)NC1(c2cc(N)cc3ncccc23)CC1` [Compound 729, (S)-N-(1-(7-Aminoquinolin-5-yl)cyclopropyl)-2-methyl-5-((1-methylazetidin-2-yl)methoxy)benzamide], the half-maximal inhibitory concentration (IC50) was under 100 nM. Take `CCCNc1cc(C2(NC(=O)c3cc(OC[C@@H]4CCN4C)ccc3C)CC2)c2cccnc2c1` [Compound 743, (S)-2-Methyl-5-((1-methylazetidin-2-yl)methoxy)-N-(1-(7-(propylamino)quinolin-5-yl)cyclopropyl)benzamide]: the IC50 is under 100 nM. Still for that read-out and setting: with `CC(=O)Nc1cc(C2(NC(=O)c3cc(OC[C@@H]4CCN4C)ccc3C)CC2)c2cccnc2c1` [Compound 744, (S)-N-(1-(7-Acetamidoquinolin-5-yl)cyclopropyl)-2-methyl-5-((1-methylazetidin-2-yl)methoxy)benzamide] the figure was under 100 nM. Same read-out and setting: with `C=Cc1cc(C2(NC(=O)c3cc(OCC45CCCN4CCC5)ccc3C)CC2)c2cccnc2c1` [Compound 748, 2-Methyl-5-((tetrahydro-1H-pyrrolizin-7a (5H)-yl)methoxy)-N-(1-(7-vinylquinolin-5-yl)cyclopropyl)benzamide] the figure was under 100 nM; with `C=Cc1cc(C2(NC(=O)c3cc(OC45CCCN(CCC4)C5)ccc3C)CC2)c2cccnc2c1` [Compound 749, 5-(1-Azabicyclo[3.3.1]nonan-5-yloxy)-2-methyl-N-(1-(7-vinylquinolin-5-yl)cyclopropyl)benzamide], under 100 nM.
